{"source": "ChEMBL document CHEMBL2016510", "about": "(J Med Chem, 2012)", "key": {"[1]": {"assay": "Negative inotropic activity in guinea pig left atria assessed as decrease of 1 Hz current-induced developed tension at 5 x 10^-7 M relative to control", "assay_type": "functional, Cavia porcellus, Cardiac atrium", "parameters": "scale not given: the % may be the effect or the level left"}, "[2]": {"assay": "Negative inotropic activity in guinea pig left atria assessed as decrease of 1 Hz current-induced developed tension", "assay_type": "functional, tissue-based", "conditions": "Cavia porcellus, Cardiac atrium"}, "[3]": {"assay": "[…] chronotropic activity in guinea pig spontaneously beating right atria assessed as decrease in atrial rate at 10^-4 M relative to control", "assay_type": "functional, Cavia porcellus, Cardiac atrium", "parameters": "scale not given: the % may be the effect or the level left"}, "Aorta": {"test_system": "Aorta", "assay": "Vasorelaxant activity in potassium depolarized guinea pig aortic strip assessed as inhibition of calcium-induced contraction at 10^-4 M", "assay_type": "functional, Cavia porcellus", "parameters": "scale not given: the % may be the effect or the level left"}, "[4]": {"assay": "Antiarrhythmic activity in guinea pig left atria assessed as increase of 1 Hz-induced alternating current arrhythmia at 5 x 10^-5 M after 60 mins relative to control", "assay_type": "functional", "conditions": "Cavia porcellus, Cardiac atrium, 1 h"}, "[5]": {"assay": "Antiarrhythmic activity in guinea pig left atria assessed as increase of 1 Hz-induced alternating current arrhythmia at 10^-4 M after 60 mins relative to control", "assay_type": "functional", "conditions": "Cavia porcellus, Cardiac atrium, 1 h"}, "[6]": {"assay": "Negative inotropic activity in guinea pig left atria assessed as decrease of 1 Hz current-induced developed tension at 5 x 10^-5 M relative to control", "assay_type": "functional, Cavia porcellus, Cardiac atrium", "parameters": "scale not given: the % may be the effect or the level left"}, "Mus musculus": {"test_system": "Mus musculus", "assay": "Neurotoxicity in mouse assessed as deffect in motor coordination at 25 to 50 mg/kg, po after 15 to 45 mins by rotarod test", "assay_type": "toxicity, organism-based", "parameters": "route oral", "conditions": "in vivo"}, "[7]": {"assay": "Antiarrhythmic activity in guinea pig left atria assessed as increase of 1 Hz-induced alternating current arrhythmia after 60 mins", "assay_type": "functional, tissue-based", "conditions": "Cavia porcellus, Cardiac atrium, 1 h"}, "Caco-2 [8]": {"test_system": "Caco-2", "assay": "Apparent permeability from apical to basolateral side in human Caco2 cells after 21 days by UV spectroscopy", "assay_type": "ADME, cell-based"}, "[9]": {"biological_target": "T1, Sodium channel protein type 5 subunit alpha (Homo sapiens, UniProt Q14524)", "T1 sequence (Q14524 whole entry)": "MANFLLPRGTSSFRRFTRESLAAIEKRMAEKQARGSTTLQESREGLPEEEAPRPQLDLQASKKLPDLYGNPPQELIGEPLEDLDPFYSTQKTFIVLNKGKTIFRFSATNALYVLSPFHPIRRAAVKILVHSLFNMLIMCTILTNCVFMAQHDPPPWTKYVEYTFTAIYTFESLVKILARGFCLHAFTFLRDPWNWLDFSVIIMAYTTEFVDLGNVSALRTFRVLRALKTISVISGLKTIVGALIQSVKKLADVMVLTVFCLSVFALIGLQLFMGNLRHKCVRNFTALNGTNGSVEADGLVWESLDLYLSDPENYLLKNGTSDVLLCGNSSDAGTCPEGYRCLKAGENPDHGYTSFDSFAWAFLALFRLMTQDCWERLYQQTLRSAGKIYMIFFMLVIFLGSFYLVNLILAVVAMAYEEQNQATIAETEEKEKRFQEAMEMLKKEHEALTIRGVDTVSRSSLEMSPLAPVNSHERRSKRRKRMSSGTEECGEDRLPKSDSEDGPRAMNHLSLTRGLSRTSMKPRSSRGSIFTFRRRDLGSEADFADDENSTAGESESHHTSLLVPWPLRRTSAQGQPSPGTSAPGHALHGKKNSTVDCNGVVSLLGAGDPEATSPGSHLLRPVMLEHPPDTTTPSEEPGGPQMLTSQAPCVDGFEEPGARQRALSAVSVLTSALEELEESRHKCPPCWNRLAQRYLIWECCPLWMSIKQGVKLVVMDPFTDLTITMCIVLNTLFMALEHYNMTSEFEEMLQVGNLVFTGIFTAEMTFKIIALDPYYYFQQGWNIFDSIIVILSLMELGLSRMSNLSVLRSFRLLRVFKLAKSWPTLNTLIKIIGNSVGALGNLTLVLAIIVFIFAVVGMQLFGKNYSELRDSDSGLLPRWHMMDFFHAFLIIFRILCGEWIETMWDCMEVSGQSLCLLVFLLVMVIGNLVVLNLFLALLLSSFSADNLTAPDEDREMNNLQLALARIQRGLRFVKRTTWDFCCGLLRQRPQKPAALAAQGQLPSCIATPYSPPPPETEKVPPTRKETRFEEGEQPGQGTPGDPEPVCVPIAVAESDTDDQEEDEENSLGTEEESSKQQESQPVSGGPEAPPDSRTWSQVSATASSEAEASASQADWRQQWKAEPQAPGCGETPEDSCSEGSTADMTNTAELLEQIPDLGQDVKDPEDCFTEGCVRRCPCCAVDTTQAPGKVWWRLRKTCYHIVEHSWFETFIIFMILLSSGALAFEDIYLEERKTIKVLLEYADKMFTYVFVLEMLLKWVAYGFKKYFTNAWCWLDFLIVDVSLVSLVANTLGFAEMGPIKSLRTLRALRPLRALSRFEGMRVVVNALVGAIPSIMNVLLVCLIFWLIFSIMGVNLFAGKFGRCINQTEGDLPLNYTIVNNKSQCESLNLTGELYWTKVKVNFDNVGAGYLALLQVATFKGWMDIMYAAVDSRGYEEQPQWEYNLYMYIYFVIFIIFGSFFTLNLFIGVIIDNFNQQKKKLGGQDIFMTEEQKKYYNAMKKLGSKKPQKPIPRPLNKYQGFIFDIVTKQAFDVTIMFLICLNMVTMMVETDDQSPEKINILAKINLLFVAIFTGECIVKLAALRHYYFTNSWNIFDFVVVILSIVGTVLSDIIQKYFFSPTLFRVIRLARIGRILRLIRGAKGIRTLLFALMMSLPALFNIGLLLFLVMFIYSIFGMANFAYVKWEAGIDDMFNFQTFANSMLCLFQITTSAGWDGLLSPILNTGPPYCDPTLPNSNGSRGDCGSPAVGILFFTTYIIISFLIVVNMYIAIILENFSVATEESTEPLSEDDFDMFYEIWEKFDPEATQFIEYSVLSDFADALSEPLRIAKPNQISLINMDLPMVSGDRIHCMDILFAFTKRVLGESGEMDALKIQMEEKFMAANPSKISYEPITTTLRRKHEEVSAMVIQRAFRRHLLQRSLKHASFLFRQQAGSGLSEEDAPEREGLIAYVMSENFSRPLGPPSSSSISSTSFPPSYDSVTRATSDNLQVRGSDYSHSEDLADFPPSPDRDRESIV", "assay": "Blockade of human full-length NaV1.5 expressed in HEK293 cells co-transfected with pCD8-IRES-hbeta1 assessed as 0.1 Hz of half-maximal tonic-induced channel current at -120 mV holding potential after 36 to 72 hrs by patch clamp assay", "assay_type": "cell-based"}, "HepG2": {"test_system": "HepG2", "assay": "Cytotoxicity against human HepG2 cells assessed as cell viability after 2 hrs by MTT assay", "assay_type": "cell-based", "conditions": "HepG2, 2 h"}, "Caco-2 [10]": {"test_system": "Caco-2", "assay": "Apparent permeability from basolateral to apical side in human Caco2 cells after 21 days by UV spectroscopy", "assay_type": "ADME, cell-based"}, "[11]": {"biological_target": "T1, Sodium channel protein type 5 subunit alpha", "assay": "Blockade of human full-length NaV1.5 expressed in HEK293 cells co-transfected with pCD8-IRES-hbeta1 assessed as 10 Hz of use-dependent-induced channel current at -120 mV holding potential after 36 to 72 hrs by patch clamp assay", "assay_type": "cell-based"}, "Caco-2 [12]": {"test_system": "Caco-2", "assay": "Efflux ratio of permeability from basolateral to apical side to apical to basolateral side in human Caco2 cells after 21 days by UV spectroscopy", "assay_type": "ADME, cell-based"}, "[13]": {"assay": "Negative chronotropic activity in guinea pig spontaneously beating right atria assessed as decrease in atrial rate at 10^-4 M relative to control", "assay_type": "functional, Cavia porcellus, Cardiac atrium", "parameters": "scale not given: the % may be the effect or the level left"}, "[14]": {"assay": "Negative chronotropic activity in guinea pig spontaneously beating right atria assessed as decrease in atrial rate at 5 x 10^-5 M relative to control", "assay_type": "functional, Cavia porcellus, Cardiac atrium", "parameters": "scale not given: the % may be the effect or the level left"}, "[15]": {"assay": "Negative chronotropic activity in guinea pig spontaneously beating right atria assessed as decrease in atrial rate", "assay_type": "functional", "conditions": "Cavia porcellus, Cardiac atrium"}, "[16]": {"assay": "Negative inotropic activity in guinea pig left atria assessed as decrease of 1 Hz current-induced developed tension at 10^-4 M relative to control", "assay_type": "functional, Cavia porcellus, Cardiac atrium", "parameters": "scale not given: the % may be the effect or the level left"}, "[17]": {"assay": "Negative inotropic activity in guinea pig left atria assessed as decrease of 1 Hz current-induced developed tension at 10^-6 M relative to control", "assay_type": "functional, Cavia porcellus, Cardiac atrium", "parameters": "scale not given: the % may be the effect or the level left"}, "[18]": {"assay": "[…] chronotropic activity in guinea pig spontaneously beating right atria assessed as decrease in atrial rate at 5 x 10^-6 M relative to control", "assay_type": "functional, Cavia porcellus, Cardiac atrium", "parameters": "scale not given: the % may be the effect or the level left"}}}
{"smiles": "CCN(CC)CCOC(=O)c1ccc(N)cc1", "note": "[PROCAINE]", "values": [{"measurement": "Activity", "setting": "[1]", "result": 92, "unit": "%"}, {"measurement": "EC50", "setting": "[2]", "result": 0.014, "unit": "µM"}, {"measurement": "Activity", "setting": "[3]", "result": 9, "unit": "%"}, {"measurement": "Activity", "setting": "Aorta", "result": 3, "unit": "%"}]}
{"smiles": "CCN(CC)CCNC(=O)c1ccc(N)cc1", "note": "[PROCAINAMIDE]", "values": [{"measurement": "Emax at 50 µM", "setting": "[4]", "result": 11, "unit": "%"}]}
{"smiles": "Cc1ccc(O)c(C)c1OCC(C)N", "note": "(racemic)", "values": [{"measurement": "Emax at 100 µM", "setting": "[5]", "result": 72, "unit": "%"}, {"measurement": "Activity", "setting": "[6]", "result": 96, "unit": "%"}, {"measurement": "Activity", "setting": "Mus musculus", "result": "Non-toxic"}, {"measurement": "EC50", "setting": "[7]", "result": 10.2, "unit": "µM"}, {"measurement": "Papp", "setting": "Caco-2 [8]", "result": 300.6, "unit": "×10⁻⁶ cm/s"}, {"measurement": "EC50", "setting": "[2]", "result": 0.098, "unit": "µM"}, {"measurement": "IC50", "setting": "[9]", "result": 174, "unit": "µM"}, {"measurement": "EC50", "setting": "HepG2", "result": "> 2000", "unit": "µM"}, {"measurement": "Papp", "setting": "Caco-2 [10]", "result": 142.5, "unit": "×10⁻⁶ cm/s"}, {"measurement": "IC50", "setting": "[11]", "result": 30, "unit": "µM"}, {"measurement": "Ratio", "setting": "Caco-2 [12]", "result": 2.1}, {"measurement": "Activity", "setting": "[13]", "result": 39, "unit": "%"}, {"measurement": "Activity", "setting": "Aorta", "result": 19, "unit": "%"}]}
{"smiles": "C=C[C@H]1CN2CC[C@H]1C[C@@H]2[C@@H](O)c1ccnc2ccc(OC)cc12", "note": "[QUINIDINE]", "values": [{"measurement": "Activity", "setting": "[14]", "result": 86, "unit": "%"}, {"measurement": "Activity", "setting": "[6]", "result": 71, "unit": "%"}, {"measurement": "EC30", "setting": "[15]", "result": 3.99, "unit": "µM"}, {"measurement": "Emax at 50 µM", "setting": "[4]", "result": 69, "unit": "%"}, {"measurement": "Activity", "setting": "Aorta", "result": 30, "unit": "%"}]}
{"smiles": "CCCCc1oc2ccccc2c1C(=O)c1cc(I)c(OCCN(CC)CC)c(I)c1", "note": "[AMIODARONE]", "values": [{"measurement": "Emax at 100 µM", "setting": "[5]", "result": 10, "unit": "%"}, {"measurement": "Activity", "setting": "[16]", "result": 30, "unit": "%"}, {"measurement": "Activity", "setting": "[13]", "result": 72, "unit": "%"}, {"measurement": "Activity", "setting": "Aorta", "result": 3, "unit": "%"}]}
{"smiles": "CCN(CC)CC(=O)Nc1c(C)cccc1C", "note": "[LIDOCAINE]", "values": [{"measurement": "Activity", "setting": "[17]", "result": 88, "unit": "%"}, {"measurement": "Activity", "setting": "[18]", "result": 29, "unit": "%"}, {"measurement": "EC50", "setting": "[2]", "result": 0.017, "unit": "µM"}, {"measurement": "Emax at 50 µM", "setting": "[4]", "result": 34, "unit": "%"}, {"measurement": "Activity", "setting": "Aorta", "result": 14, "unit": "%"}]}
{"smiles": "Cc1cccc(C)c1OCC(C)N", "note": "(racemic) [MEXILETINE]", "values": [{"measurement": "Emax at 100 µM", "setting": "[5]", "result": 64, "unit": "%"}, {"measurement": "EC30", "setting": "[15]", "result": 0.014, "unit": "µM"}, {"measurement": "EC50", "setting": "[7]", "result": 11.6, "unit": "µM"}, {"measurement": "EC50", "setting": "[2]", "result": 0.045, "unit": "µM"}, {"measurement": "EC50", "setting": "HepG2", "result": 2000, "unit": "µM"}, {"measurement": "Activity", "setting": "Aorta", "result": 5, "unit": "%"}]}
